Measured values from article PMC4391943, “Novel Epigallocatechin-3-Gallate (EGCG) Derivative as a New Therapeutic Strategy for Reducing Neuropathic Pain after Chronic Constriction Nerve Injury in Mice” (PLoS ONE, 2015).

Tests used:
NMDAR2B [1] = experiment: Western blot of phospho-NMDAR2B and total NMDAR2B in the dorsal horn of the spinal cord; format: in vivo, mice; conditions: 50 mg/Kg, 56 dpi
Description: (§1) Mice (n = 5 per group) were sacrificed with sodium pentobarbital (90 mg/kg; i.p.) at 14 and 56 dpi and spinal cord segments distal to T12 vertebra were quickly removed and frozen. For total protein extraction, the dorsal horn of the spinal cord was homogenized in modified RIPA buffer (50 mM Tris–HCl pH 7.5, 1% Triton X-100, 0.5% sodium deoxycholate, 0.2% SDS, 100 mM NaCl, 1 mM EDTA, 2 mM PMSF, 1 μg/μL aprotinin, 1 μg/μL leupeptin and 2 mM sodium orthovanadate).
(§2) Western blotting was performed as previously described. The following primary antibodies were used: anti-FASN (1:1000, BD Bioscience, San Jose, CA); anti-TNF-α, anti-IL-1β, anti-IL-6 and anti-NFκB (all 1:500, Santa Cruz Biotechnology, Santa Cruz, CA); anti-phosphoNMDAR2B (Tyr1472) (1:2000, Affinity Bioreagents, Golden, CO) and anti-NMDAR2B (1:1000, Chemicon, Temecula, CA). Loading control was performed by reprobing the membranes with anti-actin (1:10,000; MP Biochemicals, Aurora, OH), anti-NeuN (1:1,000; Chemicon) or anti-N-cadherin (1:1000, BD Bioscience). Membranes were incubated with the corresponding horseradish peroxidase-conjugated antibody (1:2,000; Promega, Madison, WI). Immunoreactive bands were visualized using the Western Blotting Luminol Reagent and quantified by a computer-assisted densitometer (Gel-Pro Analyzer, version 4, Media Cybernetics).

[2] = Toxicity studies: body weight, food and fluid intake, histological examination; format: in vivo, mice; conditions: vs control animals (data not shown)
FASN [3] = test system: FASN; design: method as in PMID 22559865; conditions: previously reported; cited from earlier work
NMDAR2B [4] = experiment: Western blot of NMDAR2B in the synaptic plasma membrane fraction of the dorsal horn; format: in vivo, mice; conditions: 50 mg/Kg, 56 dpi
Description: Subcellular fractionation was obtained by differential centrifugation as described elsewhere. Briefly, tissue was homogenized in lysis buffer (10 mM Tris-HCl pH 7.5, 1 mM EDTA, 1 mM Na3VO4, 0.25 M sucrose, 2 mM PMSF, 1 μg/μL aprotinin, 1 μg/μL leupeptin, 2 mM sodium orthovanadate). The homogenate was centrifuged at 2,000 × g for 10 min at 4°C to separate the nuclei fraction (P1). The P1 was resuspended in lysis buffer. The resulting supernatant was centrifuged at 10,000×g for 15 min at 4°C to obtain a crude membrane fraction (P2). The P2 was resuspended and incubated in the lysis buffer containing 0.5% Triton X-100 for 15 min, and then centrifuged at 25,000 × g for 20 min to obtain the synaptosomal membrane fraction (P3). Finally, the P3 was resuspended in lysis buffer and centrifuged on a discontinuous sucrose gradient (0.8 M, 1 M and 1.2 M) at 150,000×g for 2 h. Synaptic plasma membrane (SPM) was collected from the 1:1.2 M interface and resuspended in 50 mM HEPES, 2 mM EDTA, 1 mM PMSF, 10 μg/ml aprotinin, 1 μg/ml leupeptin and 2 mM sodium orthovanadate.
as §2

FASN [5] = experiment: Western blot of FASN protein levels in the dorsal horn of the spinal cord; format: in vivo, mice; conditions: 50 mg/Kg, 14 and 56 dpi
Description: as §1, §2

[6] = target: T1, fatty acid synthase (FASN) (Mus musculus, UniProt P19096); experiment: Fatty acid synthase activity in the dorsal horn of the spinal cord of treated CCI-mice (NADPH oxidation, A340); format: in vivo; conditions: 50 mg/Kg, n = 5; for FASN activity, % of vehicle group: 14 dpi
T1 construct: The dorsal horn of the spinal cord tissue was homogenized in lysis buffer; from tissue; host or cells: dorsal horn of the spinal cord of female Balb-c mice (CCI model)
Description: For dose response studies, EGCG and the two synthetic EGCG derivatives compound 23 and compound 30 were administered by intra-peritoneal injection at 10, 30, 50 and 100 mg/Kg (n = 5 mice/compound/dose), 30 minutes after the CCI. To analyze the time-dependent effect EGCG and the two synthetic EGCG derivatives compound 23 and compound 30 were administered by intra-peritoneal injection at 50 mg/Kg (n = 15 mice/compound), 30 minutes after the CCI. Another set of animals were used to study the effect of 50 mg/kg of EGCG and the two synthetic EGCG derivatives compound 23 and compound 30 at 14 dpi (n = 15 mice/compound). In all cases, the administration was daily repeated during the first week. All compounds were dissolved in DMSO/saline solution (1:9; v/v), used as vehicle group.
The fatty acid synthase (FASN) activity was assayed in particle-free supernatants by recording spectrophotometrically at 37°C (Lambda Bio 20, Perkin Elmer Boston, MA, USA, EUA) and measuring the decrease of A340 nm due to oxidation of NADPH as previously described. Briefly, mice (n = 5 per group) were sacrificed with sodium pentobarbital (90 mg/kg; i.p.) at 14 and 56 dpi. Spinal cord segments distal to T12 vertebra were quickly removed and snap frozen. The dorsal horn of the spinal cord tissue was homogenized in lysis buffer (250mM sucrose, 20 mM HEPES pH 7.6, 2 mM MgCl2, 1 mM DTT, 1 mM EDTA, 50 mM NaF, 2 mM phenylmethylsulfonyl fluoride (PMSF), 1 μg/μL aprotinin, 1 μg/μL leupeptin, 2 mM sodium orthovanadate). Homogenized samples were centrifuged at 3,500 x g for 10 minutes, and then supernatant was collected and centrifuged at 100,000 x g for 30 minutes to obtain supernatants particle-free. The protein concentrations were determined using the Dc protein assay kit. A 90 μg amount of protein was used for the reaction. A pre-incubation during 15 minutes at 37°C in 0.2 M of potassium phosphate buffer, pH = 7.0 was kept for temperature equilibration. Then, samples were added to the reaction mixture (200 mM potassium phosphate buffer, pH 7.0; 1 mM EDTA; 1 mM dithiothreitol, 30 μM Acetyl-CoA and 0.24 mM NADPH) and then were monitored at 340 nm for 3 minutes to measure background NADPH oxidation. After the addition of 50 μM of malonyl-CoA, the reaction was assayed for 10 minutes to determine FASN-dependent oxidation of NADPH. Rates were corrected with the background rate of NADPH oxidation.

[7] = design: method as in PMID 20008854, PMID 22559865, PMID 17902053; conditions: previously published toxicity studies; cited from earlier work
TNF-α, IL-1β and IL-6 = experiment: Western blot of cytokine protein levels in the dorsal horn of the spinal cord; format: in vivo, mice; conditions: 50 mg/Kg, 14 dpi
Description: as §1, §2

T1 sequence (P19096 whole entry): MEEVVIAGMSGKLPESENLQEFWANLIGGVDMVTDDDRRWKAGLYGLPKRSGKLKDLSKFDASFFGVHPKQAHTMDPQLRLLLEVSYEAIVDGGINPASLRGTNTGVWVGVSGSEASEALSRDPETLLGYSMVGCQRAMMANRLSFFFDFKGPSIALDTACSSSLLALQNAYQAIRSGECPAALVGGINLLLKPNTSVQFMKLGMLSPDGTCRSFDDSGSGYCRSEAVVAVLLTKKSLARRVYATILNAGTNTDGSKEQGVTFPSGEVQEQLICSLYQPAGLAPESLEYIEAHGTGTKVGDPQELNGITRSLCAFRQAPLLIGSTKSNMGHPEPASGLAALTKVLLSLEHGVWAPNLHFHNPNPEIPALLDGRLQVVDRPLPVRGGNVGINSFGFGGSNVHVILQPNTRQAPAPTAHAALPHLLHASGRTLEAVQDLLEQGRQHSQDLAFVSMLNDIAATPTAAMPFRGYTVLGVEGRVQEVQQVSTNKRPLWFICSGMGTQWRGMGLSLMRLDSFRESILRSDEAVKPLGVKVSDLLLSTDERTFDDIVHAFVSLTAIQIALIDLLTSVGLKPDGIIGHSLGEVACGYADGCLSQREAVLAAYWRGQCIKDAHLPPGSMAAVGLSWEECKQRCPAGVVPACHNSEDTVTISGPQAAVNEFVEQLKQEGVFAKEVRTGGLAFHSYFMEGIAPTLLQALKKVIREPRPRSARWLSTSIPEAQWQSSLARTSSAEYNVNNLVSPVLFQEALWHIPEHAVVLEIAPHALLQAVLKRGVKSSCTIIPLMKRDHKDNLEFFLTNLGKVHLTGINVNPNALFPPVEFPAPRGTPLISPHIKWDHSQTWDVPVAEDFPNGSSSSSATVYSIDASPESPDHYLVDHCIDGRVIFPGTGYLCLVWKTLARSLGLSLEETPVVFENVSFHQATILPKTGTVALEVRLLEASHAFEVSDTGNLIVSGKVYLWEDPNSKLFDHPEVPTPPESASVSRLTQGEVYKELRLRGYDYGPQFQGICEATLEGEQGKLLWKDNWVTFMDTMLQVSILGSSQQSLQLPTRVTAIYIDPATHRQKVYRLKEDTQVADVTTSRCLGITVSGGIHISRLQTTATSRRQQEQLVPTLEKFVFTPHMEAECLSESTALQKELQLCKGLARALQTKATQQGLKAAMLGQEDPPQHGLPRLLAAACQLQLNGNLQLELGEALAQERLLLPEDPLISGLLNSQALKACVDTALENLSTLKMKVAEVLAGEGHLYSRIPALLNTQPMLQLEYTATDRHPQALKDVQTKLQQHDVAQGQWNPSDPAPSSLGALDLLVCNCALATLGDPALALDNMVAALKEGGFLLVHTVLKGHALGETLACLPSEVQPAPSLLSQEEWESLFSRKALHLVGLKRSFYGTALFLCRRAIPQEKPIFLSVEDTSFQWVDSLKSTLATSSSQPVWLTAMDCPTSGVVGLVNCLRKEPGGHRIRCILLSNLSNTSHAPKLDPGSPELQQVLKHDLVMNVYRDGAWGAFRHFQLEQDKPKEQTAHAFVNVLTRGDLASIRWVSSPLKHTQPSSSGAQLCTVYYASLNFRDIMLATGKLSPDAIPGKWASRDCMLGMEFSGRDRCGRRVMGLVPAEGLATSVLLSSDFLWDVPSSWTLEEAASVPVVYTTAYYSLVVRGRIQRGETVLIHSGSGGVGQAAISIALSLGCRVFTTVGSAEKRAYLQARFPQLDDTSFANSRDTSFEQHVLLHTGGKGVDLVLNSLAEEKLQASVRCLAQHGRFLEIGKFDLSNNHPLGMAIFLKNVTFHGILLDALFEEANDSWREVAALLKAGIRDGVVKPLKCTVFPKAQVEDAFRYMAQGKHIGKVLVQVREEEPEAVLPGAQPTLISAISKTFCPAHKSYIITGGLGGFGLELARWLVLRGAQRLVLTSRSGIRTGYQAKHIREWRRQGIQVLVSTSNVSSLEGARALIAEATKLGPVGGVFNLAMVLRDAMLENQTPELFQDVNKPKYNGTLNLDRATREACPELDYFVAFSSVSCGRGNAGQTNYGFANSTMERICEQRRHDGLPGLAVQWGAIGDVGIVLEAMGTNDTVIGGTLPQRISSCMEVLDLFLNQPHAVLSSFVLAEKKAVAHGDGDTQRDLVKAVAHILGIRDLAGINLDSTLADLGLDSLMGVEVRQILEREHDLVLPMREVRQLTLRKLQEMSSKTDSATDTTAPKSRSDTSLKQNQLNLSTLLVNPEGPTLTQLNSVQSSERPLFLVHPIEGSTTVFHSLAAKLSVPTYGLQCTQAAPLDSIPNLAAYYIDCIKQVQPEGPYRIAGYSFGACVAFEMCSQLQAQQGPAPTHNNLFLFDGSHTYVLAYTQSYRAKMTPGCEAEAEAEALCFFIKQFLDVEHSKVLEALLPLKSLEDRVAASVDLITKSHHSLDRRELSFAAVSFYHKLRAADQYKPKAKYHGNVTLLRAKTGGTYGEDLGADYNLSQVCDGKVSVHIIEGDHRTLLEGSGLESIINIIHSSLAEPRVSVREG

O=C(Oc1cccc2c(OC(=O)c3cc(O)c(O)c(O)c3)cccc12)c1cc(O)c(O)c(O)c1 [Compound 23, 1,5-Bis [(3,4,5-trihydroxybenzoyl)oxy] naphthalene]
phospho-levels of NMDAR2B compared to vehicle group (NMDAR2B [1]): did not induce variations
histological examination of liver, heart, kidney lung and brain [2]: no microscopic evidence of drug induces toxicity
% of FASN inhibition (FASN [3]): 30%
protein levels of NMDAR2B in the synaptic plasma membrane (SPM) (NMDAR2B [4]): did not result in changes
effect on FASN protein levels (FASN [5]): no effect
FASN activity, % of vehicle group [6]: No differences
changes on body weight versus the control group [7]: neither 23 nor 30 caused changes on body weight

O=C(Oc1ccc(-c2ccc(OC(=O)c3cc(O)c(O)c(O)c3)cc2)cc1)c1cc(O)c(O)c(O)c1 [Compound 30, 4,4′-Bis [(3,4,5-trihydroxybenzoyl)oxy]-1,1′-biphenyl]
phospho-levels of NMDAR2B compared to vehicle group (NMDAR2B [1]): specific decrease
histological examination of liver, heart, kidney lung and brain [2]: no microscopic evidence of drug induces toxicity
% of FASN inhibition (FASN [3]): 90%
protein levels of NMDAR2B in the synaptic plasma membrane (SPM) (NMDAR2B [4]): specific decrease
effect on FASN protein levels (FASN [5]): no effect
FASN activity, % of vehicle group [6]: 61±8 % of vehicle group
reduction of FASN activity ([6]; 56 dpi): 32±9 % of vehicle
protein levels of TNF-α, IL-1β and IL-6 compared to vehicle group (TNF-α, IL-1β and IL-6): reduced
changes on body weight versus the control group [7]: neither 23 nor 30 caused changes on body weight

epigallocatechin-3-gallate [EGCG]
phospho-levels of NMDAR2B compared to vehicle group (NMDAR2B [1]): did not induce variations
protein levels of NMDAR2B in the synaptic plasma membrane (SPM) (NMDAR2B [4]): did not result in changes
effect on FASN protein levels (FASN [5]): no effect
FASN activity, % of vehicle group [6]: 57±8 % of vehicle group
protein levels of TNF-α, IL-1β and IL-6 compared to vehicle group (TNF-α, IL-1β and IL-6): reduced
